From ChEMBL document CHEMBL2057064, “Activation of human RNase L by 2'- and 5'-O-methylphosphonate-modified oligoadenylates” (Bioorg Med Chem Lett, 2012)
pEC50: −log10 of the molar value. Activity calls are given as the source filed them. No cut-off for these calls is given here.

Biological target: T1, 2-5A-dependent ribonuclease (Homo sapiens) (UniProt Q05823)
T1 sequence (whole entry): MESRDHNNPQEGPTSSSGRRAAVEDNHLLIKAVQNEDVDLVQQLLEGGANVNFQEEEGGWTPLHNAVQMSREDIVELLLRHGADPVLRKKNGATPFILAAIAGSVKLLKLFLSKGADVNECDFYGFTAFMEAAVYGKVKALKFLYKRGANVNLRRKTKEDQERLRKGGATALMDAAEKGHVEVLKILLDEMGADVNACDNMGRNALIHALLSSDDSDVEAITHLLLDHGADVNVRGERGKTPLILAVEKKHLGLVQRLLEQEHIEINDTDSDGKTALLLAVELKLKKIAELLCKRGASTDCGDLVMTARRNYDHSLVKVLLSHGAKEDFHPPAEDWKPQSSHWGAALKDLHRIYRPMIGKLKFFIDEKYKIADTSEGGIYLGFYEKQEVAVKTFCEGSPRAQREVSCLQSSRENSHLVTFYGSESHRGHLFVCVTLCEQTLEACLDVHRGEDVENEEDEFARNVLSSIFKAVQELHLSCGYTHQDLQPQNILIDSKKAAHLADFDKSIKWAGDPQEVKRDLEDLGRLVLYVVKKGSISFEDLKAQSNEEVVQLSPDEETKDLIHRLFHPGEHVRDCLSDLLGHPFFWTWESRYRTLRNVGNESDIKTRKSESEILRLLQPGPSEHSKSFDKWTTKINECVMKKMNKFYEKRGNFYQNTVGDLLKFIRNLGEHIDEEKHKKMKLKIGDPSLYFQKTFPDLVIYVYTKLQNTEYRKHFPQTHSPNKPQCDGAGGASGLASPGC
Assay: Antagonist activity at human RNase L expressed in Escherichia coli BL21 (DE3) cells assessed as RNA cleavage using Cy5-C11-rUU-C7-BHQ2 as substrate by FRET assay in presence of natural activator pAAAA
Format: functional

Structure (SMILES) | inhibition
Nc1ncnc2c1ncn2[C@@H]1O[C@H](COP(=O)(O)O[C@@H]2[C@H](O)[C@@H](COP(=O)(O)O[C@@H]3[C@@H](O)[C@@H](COCP(=O)(O)O[C@@H]4[C@@H](O)[C@@H](COCP(=O)(O)O)O[C@H]4n4cnc5c(N)ncnc54)O[C@H]3n3cnc4c(N)ncnc43)O[C@H]2n2cnc3c(N)ncnc32)[C@@H](O)[C@H]1O | inactive
Nc1ncnc2c1ncn2[C@@H]1O[C@H](COP(=O)(O)O[C@@H]2[C@H](O)[C@@H](COCP(=O)(O)O[C@@H]3[C@H](O)[C@@H](COCP(=O)(O)O[C@@H]4[C@H](O)[C@@H](COCP(=O)(O)O)O[C@H]4n4cnc5c(N)ncnc54)O[C@H]3n3cnc4c(N)ncnc43)O[C@H]2n2cnc3c(N)ncnc32)[C@@H](O)[C@H]1O | inactive
Nc1ncnc2c1ncn2[C@@H]1O[C@H](COP(=O)(O)O[C@@H]2[C@H](O)[C@@H](COP(=O)(O)CO[C@@H]3[C@@H](O)[C@@H](COP(=O)(O)CO[C@@H]4[C@@H](O)[C@@H](COP(=O)(O)O)O[C@H]4n4cnc5c(N)ncnc54)O[C@H]3n3cnc4c(N)ncnc43)O[C@H]2n2cnc3c(N)ncnc32)[C@@H](O)[C@H]1O | inactive
Nc1ncnc2c1ncn2[C@@H]1O[C@H](COP(=O)(O)O[C@H]2[C@H](O)[C@@H](COCP(=O)(O)O[C@H]3[C@H](O)[C@@H](COCP(=O)(O)O[C@H]4[C@H](O)[C@@H](COCP(=O)(O)O)O[C@H]4n4cnc5c(N)ncnc54)O[C@H]3n3cnc4c(N)ncnc43)O[C@H]2n2cnc3c(N)ncnc32)[C@@H](O)[C@H]1O | inactive
Nc1ncnc2c1ncn2[C@@H]1O[C@H](COCP(=O)(O)O[C@@H]2[C@H](O)[C@@H](COCP(=O)(O)O[C@@H]3[C@H](O)[C@@H](COCP(=O)(O)O[C@@H]4[C@H](O)[C@@H](COCP(=O)(O)O)O[C@H]4n4cnc5c(N)ncnc54)O[C@H]3n3cnc4c(N)ncnc43)O[C@H]2n2cnc3c(N)ncnc32)[C@@H](O)[C@H]1O | inactive
Nc1ncnc2c1ncn2[C@@H]1O[C@H](COP(=O)(O)O[C@H]2[C@H](O)[C@@H](COCP(=O)(O)O[C@H]3[C@H](O)[C@@H](COCP(=O)(O)O[C@@H]4[C@H](O)[C@@H](COP(=O)(O)O)O[C@H]4n4cnc5c(N)ncnc54)O[C@H]3n3cnc4c(N)ncnc43)O[C@H]2n2cnc3c(N)ncnc32)[C@@H](O)[C@H]1O | inactive
Nc1ncnc2c1ncn2[C@@H]1O[C@H](COCP(=O)(O)O[C@@H]2[C@H](O)[C@@H](COCP(=O)(O)O[C@@H]3[C@H](O)[C@@H](COCP(=O)(O)O[C@@H]4[C@H](O)[C@@H](COP(=O)(O)O)O[C@H]4n4cnc5c(N)ncnc54)O[C@H]3n3cnc4c(N)ncnc43)O[C@H]2n2cnc3c(N)ncnc32)[C@@H](O)[C@H]1O | inactive

Biological target: T2, 2-5A-dependent ribonuclease (Homo sapiens, UniProt Q05823)
T2 sequence (Q05823 whole entry): T1 sequence (whole entry)
Assay: (§1) Activation of human RNase L expressed in Escherichia coli BL21 (DE3) cells assessed as RNA cleavage using Cy5-rC11-UU-C7-BHQ2 as substrate by FRET assay

Structure (SMILES) | pEC50
Nc1ncnc2c1ncn2[C@@H]1O[C@H](COP(=O)(O)O[C@@H]2[C@H](O)[C@@H](COP(=O)(O)CO[C@@H]3[C@H](O)[C@@H](COP(=O)(O)O[C@@H]4[C@H](O)[C@@H](COP(=O)(O)O)O[C@H]4n4cnc5c(N)ncnc54)O[C@H]3n3cnc4c(N)ncnc43)O[C@H]2n2cnc3c(N)ncnc32)[C@@H](O)[C@H]1O | < 6.00
Nc1ncnc2c1ncn2[C@@H]1O[C@H](COP(=O)(O)O[C@@H]2[C@H](O)[C@@H](COP(=O)(O)O[C@@H]3[C@H](O)[C@@H](COP(=O)(O)CO[C@H]4[C@H](O)[C@@H](COP(=O)(O)O)O[C@H]4n4cnc5c(N)ncnc54)O[C@H]3n3cnc4c(N)ncnc43)O[C@H]2n2cnc3c(N)ncnc32)[C@@H](O)[C@H]1O | < 6.00
Nc1ncnc2c1ncn2[C@@H]1O[C@H](COP(=O)(O)O[C@@H]2[C@@H](O)[C@@H](COCP(=O)(O)O[C@@H]3[C@H](O)[C@@H](COP(=O)(O)O[C@@H]4[C@H](O)[C@@H](COP(=O)(O)O)O[C@H]4n4cnc5c(N)ncnc54)O[C@H]3n3cnc4c(N)ncnc43)O[C@H]2n2cnc3c(N)ncnc32)[C@@H](O)[C@H]1O | 6.00
Nc1ncnc2c1ncn2[C@@H]1O[C@H](COP(=O)(O)O[C@@H]2[C@H](O)[C@@H](COP(=O)(O)O[C@@H]3[C@H](O)[C@@H](COP(=O)(O)O[C@@H]4[C@H](O)[C@@H](COCP(=O)(O)O)O[C@H]4n4cnc5c(N)ncnc54)O[C@H]3n3cnc4c(N)ncnc43)O[C@H]2n2cnc3c(N)ncnc32)[C@@H](O)[C@H]1O | 7.28
Nc1ncnc2c1ncn2[C@@H]1O[C@H](COP(=O)(O)O[C@@H]2[C@H](O)[C@@H](COP(=O)(O)O[C@@H]3[C@H](O)[C@@H](COP(=O)(O)O[C@@H]4[C@H](O)[C@@H](COP(=O)(O)O)O[C@H]4n4cnc5c(N)ncnc54)O[C@H]3n3cnc4c(N)ncnc43)O[C@H]2n2cnc3c(N)ncnc32)[C@@H](O)[C@H]1O | 7.77
Nc1ncnc2c1ncn2[C@@H]1O[C@H](COP(=O)(O)CO[C@@H]2[C@@H](O)[C@@H](COP(=O)(O)O[C@@H]3[C@H](O)[C@@H](COP(=O)(O)O[C@@H]4[C@H](O)[C@@H](COP(=O)(O)O)O[C@H]4n4cnc5c(N)ncnc54)O[C@H]3n3cnc4c(N)ncnc43)O[C@H]2n2cnc3c(N)ncnc32)[C@@H](O)[C@H]1O | < 6.00
Nc1ncnc2c1ncn2[C@@H]1O[C@H](COP(=O)(O)O[C@@H]2[C@H](O)[C@@H](COP(=O)(O)O[C@@H]3[C@H](O)[C@@H](COP(=O)(O)CO[C@@H]4[C@H](O)[C@@H](COP(=O)(O)O)O[C@H]4n4cnc5c(N)ncnc54)O[C@H]3n3cnc4c(N)ncnc43)O[C@H]2n2cnc3c(N)ncnc32)[C@@H](O)[C@H]1O | < 6.00
Nc1ncnc2c1ncn2[C@@H]1O[C@H](COP(=O)(O)O[C@H]2[C@H](O)[C@@H](COCP(=O)(O)O[C@@H]3[C@H](O)[C@@H](COP(=O)(O)O[C@@H]4[C@H](O)[C@@H](COP(=O)(O)O)O[C@H]4n4cnc5c(N)ncnc54)O[C@H]3n3cnc4c(N)ncnc43)O[C@H]2n2cnc3c(N)ncnc32)[C@@H](O)[C@H]1O | < 6.00
Nc1ncnc2c1ncn2[C@@H]1O[C@H](COP(=O)(O)O[C@@H]2[C@H](O)[C@@H](COP(=O)(O)CO[C@H]3[C@H](O)[C@@H](COP(=O)(O)O[C@@H]4[C@H](O)[C@@H](COP(=O)(O)O)O[C@H]4n4cnc5c(N)ncnc54)O[C@H]3n3cnc4c(N)ncnc43)O[C@H]2n2cnc3c(N)ncnc32)[C@@H](O)[C@H]1O | < 6.00
Nc1ncnc2c1ncn2[C@@H]1O[C@H](COP(=O)(O)O[C@@H]2[C@H](O)[C@@H](COP(=O)(O)CO[C@@H]3[C@@H](O)[C@@H](COP(=O)(O)O[C@@H]4[C@H](O)[C@@H](COP(=O)(O)O)O[C@H]4n4cnc5c(N)ncnc54)O[C@H]3n3cnc4c(N)ncnc43)O[C@H]2n2cnc3c(N)ncnc32)[C@@H](O)[C@H]1O | < 6.00
Nc1ncnc2c1ncn2[C@@H]1O[C@H](COP(=O)(O)O[C@@H]2[C@H](O)[C@@H](COP(=O)(O)O[C@H]3[C@H](O)[C@@H](COCP(=O)(O)O[C@@H]4[C@H](O)[C@@H](COP(=O)(O)O)O[C@H]4n4cnc5c(N)ncnc54)O[C@H]3n3cnc4c(N)ncnc43)O[C@H]2n2cnc3c(N)ncnc32)[C@@H](O)[C@H]1O | < 6.00
Nc1ncnc2c1ncn2[C@@H]1O[C@H](COP(=O)(O)O[C@@H]2[C@H](O)[C@@H](COP(=O)(O)O[C@@H]3[C@@H](O)[C@@H](COCP(=O)(O)O[C@@H]4[C@H](O)[C@@H](COP(=O)(O)O)O[C@H]4n4cnc5c(N)ncnc54)O[C@H]3n3cnc4c(N)ncnc43)O[C@H]2n2cnc3c(N)ncnc32)[C@@H](O)[C@H]1O | < 6.00

Biological target: T1, 2-5A-dependent ribonuclease (Homo sapiens)
Assay: as §1

Structure (SMILES) | Activity
Nc1ncnc2c1ncn2[C@@H]1O[C@H](COP(=O)(O)O[C@@H]2[C@@H](O)[C@@H](COCP(=O)(O)O[C@@H]3[C@H](O)[C@@H](COP(=O)(O)O[C@@H]4[C@H](O)[C@@H](COP(=O)(O)O)O[C@H]4n4cnc5c(N)ncnc54)O[C@H]3n3cnc4c(N)ncnc43)O[C@H]2n2cnc3c(N)ncnc32)[C@@H](O)[C@H]1O | Active
